We go through 9 molecules from patent US10472366B2, “Glucuronide prodrugs of tofacitinib” (THERAVANCE BIOPHARMA R&D IP, LLC, priority 2017, dated 2019).

Several values for one entry are separate records, joined by “and”; a condition that tells them apart may be missing. Identical values can stand only once.

Data set [1] relates to β-glucuronidase in rat colon feces. Kind of data set: Rat colon fecal homogenate stability assay. Type of data set: in vitro ADME. To be noted: in vitro half-life in rat fecal supernatant-homogenate, anaerobic, 10 μM substrate, individual values when assay repeated; for half-life at 10 μM: male, rat, rat colon fecal supernatant-homogenate, read-out: T½. The source says: The compounds of the present invention contain a glucuronide prodrug moiety that is expected to be cleaved by β-glucuronidase enzyme. The objective of this assay was to determine the half-life for compounds of the present invention in the presence of β-glucuronidase in rat colon feces.
Following sacrifice of a naïve male rat (˜300 g) by cardiac puncture exsanguination, the colon was ligated and removed to an anaerobic chamber (AS-580, Anaerobe Systems). The fecal content was removed within the chamber and was diluted 1:10 with phosphate buffer (1 gram fecal content to 9 mL phosphate buffer) and the resulting mixture was homogenized using a handheld Omni Tissue Master. The fecal homogenate was centrifuged at 2000 g for 10 min to remove bulk material and the supernatant was removed and used for the incubations.
DMSO stock solutions (10 mM) of the test compounds and sulfasalazine (control) were prepared. Sulfasalazine was used as a positive control to confirm viability of the fecal supernatant-homogenate (see, e.g., Azad Khan et al., Clinical Science (1983) 64, 349-354). If the in vitro half-life (T½) for sulfasalazine in the fecal sample was less than 30 min, the fecal sample was deemed to be viable and in true anaerobic conditions. However, if the T½ for sulfasalazine was greater than 30 min, the fecal sample was typically contaminated with oxygen and was not viable. The final substrate concentration of each assay was 10 μM. Reactions were started by adding a 5 μL aliquot of diluted test compound stock solution into 300 μL of rat fecal supernatant-homogenate. At 0, 15, 30, 60, 90, and 120 min post reaction initiation, a 50 μL aliquot was removed and added to a mixture of 200 μL of acetonitrile with 3% formic acid and an internal standard. All samples were centrifuged at 2000 g for 10 min after which 50 μL of supernatant was diluted into 150 μL of water for analysis on an LC-MS system. In vitro half-lives (T½) for the test compounds were calculated as follows: T½=0.693/elimination rate constant. When the assay was performed more than once, individual values are reported.

The subject of data set [2] is oxazolone-induced colitis. Kind of data set: Mouse model of oxazolone-induced colitis. To be noted: PO. Type of data set: in vivo. The protocol:
Oxazolone-induced colitis is an experimental model that has a histological resemblance to human ulcerative colitis (Heller et al. […], 2002, 17, 629-638). Adult BALB/C mice (25-28 g, 9-12 weeks of age) from BioNeeds (India) were used in the assay. On Day 1, animals were lightly anesthetized with isoflurane and the hairs between the shoulder were carefully removed. Oxazolone (6 mg/mouse, 100 μL, 4:1 acetone:olive oil formulation) or vehicle solution was slowly applied to the bare skin patch to induce skin sensitization. Six days after skin sensitization, the mice were fasted overnight and then anesthetized with ketamine and xylazine administered intraperitoneally. A 1 mL syringe filled with oxazolone solution (0.5 mg/50 μL/mouse in 50% ethanol) or 50% ethanol/saline was inserted carefully ˜3.8 cm into the colon of the mouse. Animals were kept in a head down position and oxazolone or vehicle solution was rectally instilled very slowly over a minute. The mice were held vertically (head down) for another minute to ensure that the entire oxazolone or vehicle solution remained inside the colon. Test compound treatment (PO, BID or TID) or vehicle was initiated the evening prior to the oxazolone intrarectal (IR) challenge. On both first (Day 1) and second (Day 2) days post-oxazolone IR challenge, the Disease Activity Index (DAI) was assessed by treatment-blinded experimenters for each mouse, according to the following subscores: stool consistency (0, normal; 2, loose; 4, diarrhea), gross bleeding and hemoccult test (0, absence; 2, blood tinged; 4, overt blood presence), and weight loss (0, none; 1, 1%-5%; 2, 6^%-10%; 3, 11%-15%; 4, more than 15%); DAI=average of (stool consistency+blood presence+weight loss scores).
An area-under-the-curve (AUC) calculation based on total DAI scores was performed to track disease progression during the course of the experiment. AUC for each experimental group was calculated as: AUC=[(Day 1−Day 0)*Average (DAI Score of Day 0 & Day 1)]+[(Day 2−Day 1)*Average (DAI Score of Day 1 & Day 2)]. A Student's t-test compared the DAI AUC score of the vehicle/vehicle and vehicle/oxazolone groups to evaluate whether disease was induced following oxazolone treatment. This was followed by a one-way analysis of variance (ANOVA), with Dunnett's post hoc test, to compare the DAI AUC score of the vehicle/oxazolone and test compound/oxazolone groups. Statistical significance was defined by an α level set at p<0.05.

Data set [3] is described as follows: Oral pharmacokinetics in rat assay. It is filed as in vivo. To be noted: liberated tofacitinib AUC0-6 h in colon tissue; male Sprague Dawley rats, single PO dose 5 mg/kg of test compound. How it is done:
When cleaved by β-glucuronidase enzyme, the compounds of the present invention release tofacitinib. The object of this assay was to determine tofacitinib exposure (AUC0-6 h) in colon tissue and plasma following oral dosing of compounds of the present invention in rats.
Male Sprague Dawley rats (n=2/time point) received a single PO oral gavage dose (5 mg/kg in 1:20 mixture of 5% DMSO and 1% HPMC) of test compounds. At 0.5, 1, 3, 6 and 24 h post-dosing, rats were sacrificed via cardiac puncture exsanguination, and blood samples were taken and placed into sample tubes (Microtainer, Becton, Dickinson and Company) containing sodium fluoride and then placed on ice. Plasma was obtained by centrifugation (Eppendorf centrifuge, 5804R) for 4 minutes at approximately 12,000 rpm at 4° C.
The colons were removed from exsanguinated rats and the colon contents gently removed. The colons were flushed with saline and patted dry. The colons were then homogenized in 3× the weight of sterile water using a tissue homogenizer (Precellys homogenizer, Bertin Instruments) at approximately 4° C. All samples were stored at −80° C. for later bioanalysis.
The concentration of tofacitinib in each sample was determined as follows: the plasma and colon samples were vortexed, combined with a 50 μL aliquot of rat plasma, extracted with 200 μL of ACN containing an internal standard and quantified against the internal standard by LC-MS. An area-under-the-concentration curve (AUC0-6 h) was calculated for plasma and colon test compound and liberated tofacitinib. A key parameter to assess suitability for localized delivery of tofacitinib to the colon was the tofacitinib colon to plasma AUC ratio.

On to `Cc1ccc(O[C@@H]2O[C@H](C(=O)O)[C@@H](O)[C@H](O)[C@H]2O)c(N(C)C(=O)n2ccc3c(N(C)[C@H]4CN(C(=O)CC#N)CC[C@H]4C)ncnc32)c1` [Compound III-3, (2S,3S,4S,5R,6S)-6-(2-(4-(((3R,4R)-1-(2-Cyanoacetyl)-4-methylpiperidin-3-yl)(methyl)amino)-N-methyl-7H-pyrrolo[2,3-d]pyrimidine-7-carboxamido)-4-methylphenoxy)-3,4,5-trihydroxytetrahydro-2H-pyran-2-carboxylic Acid], for which, in data set [1], the T½ is listed as under 15 min and the half-life at 10 μM came out at 20 min.

As to `C[C@@H]1CCN(C(=O)CC#N)C[C@@H]1N(C)c1ncnc2c1ccn2C(=O)N(C)c1cc(C(F)(F)F)ccc1O[C@@H]1O[C@H](C(=O)O)[C@@H](O)[C@H](O)[C@H]1O` [Compound III-4, (2S,3S,4S,5R,6S)-6-(2-(4-(((3R,4R)-1-(2-cyanoacetyl)-4-methylpiperidin-3-yl)(methyl)amino)-N-methyl-7H-pyrrolo[2,3-d]pyrimidine-7-carboxamido)-4-(trifluoromethyl)phenoxy)-3,4,5-trihydroxytetrahydro-2H-pyran-2-carboxylic Acid], in data set [1], the T½ is 6 min and < 15 min.

Consider `C[C@@H]1CCN(C(=O)CC#N)C[C@@H]1N(C)c1ncnc2c1ccn2C(=O)N(C)c1cc(Cl)ccc1O[C@@H]1O[C@H](C(=O)O)[C@@H](O)[C@H](O)[C@H]1O` [Compound III-5, (2S,3S,4S,5R,6S)-6-(4-Chloro-2-(4-(((3R,4R)-1-(2-cyanoacetyl)-4-methylpiperidin-3-yl)(methyl)amino)-N-methyl-7H-pyrrolo[2,3-d]pyrimidine-7-carboxamido)phenoxy)-3,4,5-trihydroxytetrahydro-2H-pyran-2-carboxylic Acid], for which the half-life at 10 μM in data set [1] is under 15 min.

As to `C[C@@H]1CCN(C(=O)CC#N)C[C@@H]1N(C)c1ncnc2c1ccn2C(=O)N(C)Cc1ccccc1O[C@@H]1O[C@H](C(=O)O)[C@@H](O)[C@H](O)[C@H]1O` [Compound III-6, (2S,3S,4S,5R,6S)-6-(2-((4-(((3R,4R)-1-(2-Cyanoacetyl)-4-methylpiperidin-3-yl)(methyl)amino)-N-methyl-7H-pyrrolo[2,3-d]pyrimidine-7-carboxamido)methyl)phenoxy)-3,4,5-trihydroxytetrahydro-2H-pyran-2-carboxylic Acid], in data set [1], the T½ is <15, <15 min and the half-life at 10 μM is under 15 min. Besides, in data set [2] (3, 10 and 30 mg/kg, BID, BALB/C mice, vs vehicle/oxazolone, p<0.05), the “reversal of oxazolone-induced colitis (DAI AUC score)” value is “did not produced a statistically significant effect”.

Take `C[C@@H]1CCN(C(=O)CC#N)C[C@@H]1N(C)c1ncnc2c1ccn2C(=O)N(C)Cc1cc([N+](=O)[O-])ccc1O[C@@H]1O[C@H](C(=O)O)[C@@H](O)[C@H](O)[C@H]1O` [Compound III-7, (2S,3S,4S,5R,6S)-6-(2-((4-(((3R,4R)-1-(2-Cyanoacetyl)-4-methylpiperidin-3-yl)(methyl)amino)-N-methyl-7H-pyrrolo[2,3-d]pyrimidine-7-carboxamido)methyl)-4-nitrophenoxy)-3,4,5-trihydroxytetrahydro-2H-pyran-2-carboxylic Acid]: in data set [1], the T½ is on record as <15, <15 min and the half-life at 10 μM was under 15 min.

For `C[C@@H]1CCN(C(=O)CC#N)C[C@@H]1N(C)c1ncnc2c1ccn2C(=O)N(C)Cc1ccccc1NC(=O)O[C@@H]1O[C@H](C(=O)O)[C@@H](O)[C@H](O)[C@H]1O` [Compound IV-1], the T½ in data set [1] was 1 min and < 15 min. In addition, in data set [3], the “Colon AUC” value amounted to 5.15 µg·h/g.

For the molecule `C[C@@H]1CCN(C(=O)CC#N)C[C@@H]1N(C)c1ncnc2c1ccn2C(=O)N(C)CCN(C)C(=O)OCc1ccccc1O[C@@H]1O[C@H](C(=O)O)[C@@H](O)[C@H](O)[C@H]1O` [Compound V-1, (2S,3S,4S,5R,6S)-6-(2-((((2-(4-(((3R,4R)-1-(2-Cyanoacetyl)-4-methylpiperidin-3-yl)(methyl)amino)-N-methyl-7H-pyrrolo[2,3-d]pyrimidine-7-carboxamido)ethyl)(methyl)carbamoyl)oxy)methyl)phenoxy)-3,4,5-trihydroxytetrahydro-2H-pyran-2-carboxylic Acid], in data set [1], the T½ is listed as <15, <15 min and the half-life at 10 μM was under 15 min.

For the molecule `C[C@@H]1CCN(C(=O)CC#N)C[C@@H]1N(C)c1ncnc2c1ccn2C(=O)N(C)CCN(C)C(=O)OCc1ncccc1O[C@@H]1O[C@H](C(=O)O)[C@@H](O)[C@H](O)[C@H]1O` [Compound V-2, (2S,3S,4S,5R,6S)-6-((2-((((2-(4-(((3R,4R)-1-(2-Cyanoacetyl)-4-methylpiperidin-3-yl)(methyl)amino)-N-methyl-7H-pyrrolo[2,3-d]pyrimidine-7-carboxamido)ethyl)(methyl)carbamoyl)oxy)methyl)pyridin-3-yl)oxy)-3,4,5-trihydroxytetrahydro-2H-pyran-2-carboxylic Acid], the half-life at 10 μM in data set [1] is under 15 min.

With `C[C@@H]1CCN(C(=O)CC#N)C[C@@H]1N(C)c1ncnc2[nH]ccc12` [tofacitinib, 3-((3R,4R)-4-methyl-3-(methyl(7H-pyrrolo[2,3-d]pyrimidin-4-yl)amino)piperidin-1-yl)-3-oxopropanenitrile], the “reversal of oxazolone-induced colitis (DAI AUC score)” value in data set [2] (positive control, 60 mg/kg, experiment with Compound 11-6) is reported as “did produce a statistically significant reversal”; in data set [2] (positive control, 30 and 60 mg/kg, BID, experiment with Compound II-1), “statistically significant reversal”; in data set [2] (positive control, 30 and 60 mg/kg, BID, experiment with Compound III-1) it was “did not produce a statistically significant reversal”; in data set [2] (positive control, 30 and 60 mg/kg, BID, experiment with Compound III-2), “statistically significant reversal”.
